Results from patent US9981972B2, “N-hydroxy bicyclic hydantoin carbamates as tools for identification of serine hydrolase targets” (ABIDE THERAPEUTICS, INC., priority 2014, dated 2018).
“Also recorded” adds a separate entry of the source. Where two headings read alike, the source gives them in different places.

Key:
[1] = test system: serine hydrolases in PC3 cells; experiment: ABPP-SILAC, PC3 cells treated in situ, other SH targets; format: cell-based, human; conditions: 4 h in situ
Experimental: (§1) In situ inhibitor treatments of human cell lines were performed as described previously (Hsu et al., J Med Chem 56, 8270-8279, 2012). Briefly, PC3 or transfected HEK293T cells were grown to confluency in serum-containing media (RPMI or DMEM, respectively). The culture media was then removed and replaced with fresh media containing DMSO or inhibitor at the desired concentration and incubated for 4 hours in a tissue culture incubator (37° C., 5% CO2). Cells were then washed with PBS, harvested, washed with PBS once more, and lysed with a probe sonicator.
(§2) The activity and selectivity of dual ABHD3/4 and ABHD4-preferring inhibitors in PC3 cells by ABPP-SILAC was assessed. Isotopically heavy and light PC3 cells were treated in situ with inhibitor (Compound 37 (1 μM) or Compound 38 (0.5 μM)) or DMSO for 4 h and then lysed and processed for ABPP-SILAC analysis.
Isotopically heavy- and light-labeled PC3 cells were treated with Compound 37 (1 μM) or DMSO for 4 h, respectively, lysed, and then treated Compound 39 (5 μM, 1 h). […] Among the handful of additional SH targets of Compound 37 were ABHD6 and PLA2G7, which were expected based on our ABPP-SILAC studies with FP-biotin (see FIG. 9), and protein-palmitoyl thioesterase 1 (PPT1), which was inhibited by more than 90%. […] Accordingly, PPT1 was not detected in our previous ABPP-SILAC studies with FP-biotin (see FIG. 9). The selective enrichment of PPT1 by Compound 39 was confirmed by performing a probe-versus-probe ABPP-SILAC study, where heavy and light PC3 proteomes were treated with FP-biotin (2.5 μM, 1 h) and Compound 39 (5 μM, 1 h), respectively. PPT1, along with two additional SHs LIPA and DDHD2, were preferentially enriched by Compound 39 over FP-biotin, while most of the other SHs were more strongly enriched by FP-biotin (see FIG. 13). A handful of SHs corresponding mostly to enzymes that were identified in our ABPP-SILAC studies as targets of Compound 37 (see FIGS. 9 and 12), were equivalently enriched by Compound 39 and FP-biotin (see FIG. 13).
To evaluate the broader selectivity of Compound 26 and Compound 34 across the SH class, heavy and light isotopically-labeled PC3 cells were treated with inhibitor [Compound 34 (1 μM); or Compound 26 (1 or 0.1 μM); 4 h) and DMSO, respectively, followed by ABPP-SILAC analysis with either the FP-biotin probe or the Compound 39 probe. […] Conversely, Compound 34 inhibited >90% of ABHD4 activity, as measured with either the FP-biotin probe or the Compound 39 probe, and cross-reacted with four additional targets—ABHD6, PAFAH2, PLA2G7, and PLA2G15.

PPT1 = target: T1, PPT1 (Homo sapiens, UniProt P50897); experiment: In situ inhibition of hPPT1 in transfected HEK293T cells, competitive ABPP with Compound 39 probe; format: cell-based; set-up: expressed in transfected cells; host or cells: HEK293T
T1 sequence (P50897 28-306): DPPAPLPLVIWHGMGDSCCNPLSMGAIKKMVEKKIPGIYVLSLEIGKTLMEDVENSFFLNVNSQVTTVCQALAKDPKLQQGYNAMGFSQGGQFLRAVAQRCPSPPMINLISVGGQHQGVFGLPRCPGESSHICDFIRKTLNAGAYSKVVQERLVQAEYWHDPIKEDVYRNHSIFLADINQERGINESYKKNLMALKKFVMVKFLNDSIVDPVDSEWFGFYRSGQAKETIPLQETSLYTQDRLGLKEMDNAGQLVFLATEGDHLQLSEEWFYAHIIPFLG
Experimental: (§3) HEK293T cells were seeded at 2×10^5 per well on 6 well plates and grown for 48 h. They were then transfected with mABHD3 (pCMV-Sport6), hABHD4 (pcDNA3.1/myc-his), hPPT1 (pCMV6-XL5), or hPPT1 S115A (pCMV6-XL5), by incubating 0.5 μg of DNA with 3 μL of PEI MAX (1 mg/mL, Polysciences, Inc) in serum-free DMEM for 30 min, then adding them to cells. After 48 h cells were either treated with compound in situ, as described above, or harvested for in vitro studies. The […] PPT1 mutation was introduced using QuikChange II Site Directed Mutagenesis Kit (Agilent) with the following primers: […]
as §1
This possibility was explored by treating HEK293T cells transfected with human PPT1 (hPPT1) with Compound 37 (5 μM, 4 h pre-treatment) or DMSO followed by cell lysis and treatment with Compound 39 (5 μM, 1 h). A strong, but diffuse Compound 37-sensitive, Compound 39-labeled protein band was detected by gel-based ABPP in hPPT1-transfected, but not mock-transfected cell lysates (see FIG. 14), and this diffuse signal was compressed to a tight, faster-migrating band matching the predicted molecular weight of PPT1 following treatment with the glycosidase PNGaseF (see FIG. 14). Western blotting with an anti-PPT1 antibody confirmed a similar migration pattern for hPPT1 protein in transfected cell lysates (see FIG. 14, bottom panel).
A structurally diverse panel of N-hydroxy bicyclic hydantoin carbamates were assayed at 2 or 0.2 μM for in situ inhibition of hPPT1 in transfected HEK293T cells.

ABHD3 = target: T2, ABHD3 (Homo sapiens, UniProt Q8WU67); experiment: ABPP-SILAC, PC3 cells treated in situ; format: cell-based; conditions: 4 h in situ, FP-biotin
T2 construct: endogenous in cells; host or cells: PC3
Experimental: as §1, §2

mABHD3 = target: T3, mABHD3 (Mus musculus, UniProt Q91ZH7); experiment: Gel-based competitive ABPP, recombinant enzyme in transfected HEK293T cell lysates; format: biochemical
T3 construct: expressed in transfected cells; host or cells: HEK293T, transient transfection, pCMV-Sport6; lysate used in vitro
T3 sequence (Q91ZH7 1-411): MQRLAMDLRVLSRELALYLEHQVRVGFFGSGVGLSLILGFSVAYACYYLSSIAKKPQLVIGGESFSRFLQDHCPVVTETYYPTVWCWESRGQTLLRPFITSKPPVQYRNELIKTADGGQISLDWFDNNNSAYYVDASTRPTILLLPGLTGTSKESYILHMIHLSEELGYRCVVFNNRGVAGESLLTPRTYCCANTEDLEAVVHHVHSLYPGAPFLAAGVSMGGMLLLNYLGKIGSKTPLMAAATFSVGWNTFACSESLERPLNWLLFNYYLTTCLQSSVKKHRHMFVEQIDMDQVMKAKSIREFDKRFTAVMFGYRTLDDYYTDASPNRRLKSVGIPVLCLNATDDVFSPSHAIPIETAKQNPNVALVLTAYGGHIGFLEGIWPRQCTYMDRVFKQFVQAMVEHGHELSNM
Experimental: as §3
Human ABHD3 and ABHD4 were recombinantly expressed by transient transfection in HEK293T cells, and the cell lysates were combined to provide a convenient assay for monitor inhibition of both enzymes by gel-based ABPP (see FIG. 8A).

[2] = transfected HEK293T lysates, read-out: mABHD3 in vitro potency (IC50)
[3] = hPPT1-transfected HEK293T cells, in situ, read-out: hPPT1 (in situ), IC50

T2 sequence (Q8WU67 whole entry): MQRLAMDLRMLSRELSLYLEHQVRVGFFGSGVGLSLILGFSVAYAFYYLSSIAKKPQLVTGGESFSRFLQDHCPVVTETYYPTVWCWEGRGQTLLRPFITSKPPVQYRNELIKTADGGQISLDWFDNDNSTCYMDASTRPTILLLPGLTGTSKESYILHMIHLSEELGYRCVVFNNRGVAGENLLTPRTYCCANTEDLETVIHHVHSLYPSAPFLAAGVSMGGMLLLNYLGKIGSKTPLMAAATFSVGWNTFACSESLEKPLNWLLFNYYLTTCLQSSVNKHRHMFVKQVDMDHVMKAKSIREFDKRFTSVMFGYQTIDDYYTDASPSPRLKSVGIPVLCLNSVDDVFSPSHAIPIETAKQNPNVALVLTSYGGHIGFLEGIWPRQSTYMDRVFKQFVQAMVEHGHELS

COc1ccc(N2CCN(C(=O)ON3C(=O)C4CN(CC5CCN(Cc6ccccc6)CC5)CCN4C3=O)CC2)cc1 (stereo not shown) [Compound 26, 7-((1-benzylpiperidin-4-yl)methyl)-1,3-dioxohexahydroimidazo[1,5-a]pyrazin-2(3H)-yl 4-(4-methoxyphenyl)piperazine-1-carboxylate]
cross-reacting SHs of >40 quantified ([1]; 1 or 0.1 μM, PC3): ABHD6 and CPVL
in situ inhibition of hPPT1 at 200 nM (PPT1; 200 nM, transfected HEK293T cells): complete inhibition
IC50 (PPT1; gel-based competitive ABPP, read-out: in situ IC50 for recombinant PPT1): 100 nM

O=C(ON1C(=O)C2CN(Cc3ccc(Oc4ccccc4)cc3)CCN2C1=O)N1CCC(c2ccccc2)CC1 (stereo not shown) [Compound 38, 1,3-dioxo-7-(4-phenoxybenzyl)hexahydroimidazo[1,5-a]pyrazin-2(3H)-yl 4-phenylpiperidine-1-carboxylate]
inhibition of ABHD3 in PC3 cells (ABHD3; 0.5 μM): inhibit both ABHD3 and ABHD4
additional targets among 44 serine hydrolases ([1]; 0.5 μM, PC3, FP-biotin): LIPE and PLA2G7 and ABHD6 and CES2
IC50 (mABHD3; combined HEK293T lysates, gel-based ABPP, read-out: ABHD3 IC50): 130 nM
IC50 (mABHD3; [2]): 100 nM

COc1ccc(N2CCN(C(=O)ON3C(=O)C4CN(Cc5ccc(Oc6ccccc6)cc5)CCN4C3=O)CC2)cc1 (stereo not shown) [Compound 37, 1,3-dioxo-7-(4-phenoxybenzyl)hexahydroimidazo[1,5-a]pyrazin-2(3H)-yl 4-(4-methoxyphenyl)piperazine-1-carboxylate]
inhibition at 1 µM (ABHD3; PC-3, 1 μM): ~80%
SHs inhibited in PC3 cells ([1]; 1 μM, Compound 39 probe): ABHD4; also recorded: ABHD6; also recorded: PLA2G7
IC50 (mABHD3; [2]): 7600 nM
hPPT1 (in situ), % @ 2 μM (PPT1; 2 μM, hPPT1-transfected HEK293T cells, in situ): 100% @ 2 μM
reaction with hPPT1 / blockade of Compound 39 labeling (PPT1; 5 μM, 4 h pre-treatment, hPPT1-transfected HEK293T cells): blocked; also recorded: reacted with PPT1

O=C(ON1C(=O)C2CN(Cc3ccc(Oc4ccccc4)cc3)CCN2C1=O)N1CCOCC1 (stereo not shown) [Compound 34, 1,3-dioxo-7-(4-phenoxybenzyl)hexahydroimidazo[1,5-a]pyrazin-2(3H)-yl morpholine-4-carboxylate]
additional cross-reacting targets ([1]; 1 μM, PC3): ABHD6; also recorded: PAFAH2; also recorded: PLA2G7; also recorded: PLA2G15
IC50 (mABHD3; [2]): > 10000 nM
IC50 (PPT1; [3]): 3900 nM

O=C(ON1C(=O)C2CN(C(=O)N3CCOCC3)CCN2C1=O)N1CCC(CCc2ccc(Cl)cc2)CC1 (stereo not shown) [Compound 1, 7-(morpholine-4-carbonyl)-1,3-dioxohexahydroimidazo[1,5-a]pyrazin-2(3H)-yl 4-(4-chloro-phenethyl)piperidine-1-carboxylate]
IC50 (PPT1; [3]): 500 nM
